{"source": "BindingDB's records for patent US9572811", "about": "(Principia Biopharma, 2017)", "biological_target": "Tyrosine-protein kinase BTK (Homo sapiens, UniProt Q06187)", "sequence (Q06187 whole entry)": "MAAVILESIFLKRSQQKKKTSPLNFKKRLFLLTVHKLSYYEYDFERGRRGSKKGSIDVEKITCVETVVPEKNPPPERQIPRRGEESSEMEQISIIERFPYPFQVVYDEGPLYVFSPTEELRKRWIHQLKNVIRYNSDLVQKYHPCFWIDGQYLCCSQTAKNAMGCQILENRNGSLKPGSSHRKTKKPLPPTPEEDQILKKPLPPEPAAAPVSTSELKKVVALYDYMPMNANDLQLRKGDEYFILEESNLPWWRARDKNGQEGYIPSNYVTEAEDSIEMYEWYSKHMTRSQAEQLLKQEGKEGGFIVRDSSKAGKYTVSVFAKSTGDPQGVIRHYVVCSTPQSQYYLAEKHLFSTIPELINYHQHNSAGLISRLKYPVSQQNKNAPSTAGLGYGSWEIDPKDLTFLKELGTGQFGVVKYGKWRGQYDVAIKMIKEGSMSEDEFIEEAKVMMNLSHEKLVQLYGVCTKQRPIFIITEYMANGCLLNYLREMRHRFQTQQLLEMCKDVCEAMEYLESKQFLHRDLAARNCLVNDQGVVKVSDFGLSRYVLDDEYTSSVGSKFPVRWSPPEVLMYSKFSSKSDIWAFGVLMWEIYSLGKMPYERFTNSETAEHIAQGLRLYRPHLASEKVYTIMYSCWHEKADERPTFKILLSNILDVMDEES", "assay": "Caliper-based kinase assay", "settings": "25 °C", "procedure": "A Caliper-based kinase assay (Caliper Life Sciences, Hopkinton, Mass.) was used to measure inhibition of Btk kinase activity of a compound of Formula (I). […] The reaction was then terminated with EDTA, final concentration 20 mM and the phosphorylated reaction product was quantified on a Caliper Desktop Profiler (Caliper LabChip 3000).", "data": [{"compound": "CN(CCn1nc(-c2ccc(Oc3ccccc3)cc2)c2c(N)ncnc21)C(=O)C(C#N)=CC1CC1", "note": "[US9572811, Example 36A]", "values": [{"measurement": "IC50", "result": 4.3, "unit": "nM"}]}]}
